# Experimental data as given in article PMC6009932, “Small molecule purine and pseudopurine derivatives: synthesis, cytostatic evaluations and investigation of growth inhibitory effect in non-small cell lung cancer A549” (Journal of Enzyme Inhibition and Medicinal Chemistry, 2017).
# Columns and labels:
# [1] = test system: WI38 normal human lung fibroblasts; assay: Proliferation assay (MTT, 72 h) on normal lung fibroblasts WI38; format: cell-based; details: WI-38, read-out: IC50 WI38/HFF-1 (WI38)
# Method: (§1) Human carcinoma cell lines A549 (lung carcinoma), HeLa (cervical carcinoma), SW620 (colorectal adenocarcinoma, metastatic), and CFPAC-1 (pancreatic cancer, derived from metastatic: liver), normal human lung (WI38) and foreskin (HFF-1) fibroblasts were obtained from the American Type Culture Collection (ATCC). Cells were cultured in humidified atmosphere at 37 °C with 5% CO2. As growth medium, Dulbecco’s modified Eagle medium (DMEM) was used with the addition of foetal bovine serum (10%), L-glutamine (2 mM) and antibiotics: streptomycin (100 µg/ml) and penicillin (100 U/ml).
# (§2) Cells were seeded onto 96-well microtiter plates at a seeding density of 3000 cells/well for carcinoma cell lines, and 5000 cells/well for normal human fibroblasts. The next day, cells were treated with test agents in five different concentrations (0.01–100 µM) and further incubated for 72 h. […] Following 72 h incubation, the MTT assay was performed and measured absorbances were transformed into percentage of cell growth as described previously. Results were obtained from three independent experiments. IC50 values were calculated using linear regression analysis and results were statistically analysed by ANOVA, Tukey post-hoc test (p < .05).
# [2] = test system: CFPAC-1 (ductal pancreatic adenocarcinoma); assay: Proliferation assay (MTT, 72 h) on CFPAC-1; format: cell-based; details: Homo sapiens
# Method: as §1, §2
# [3] = test system: HeLa (cervical carcinoma); assay: Proliferation assay (MTT, 72 h) on HeLa; format: cell-based; details: Homo sapiens
# Method: as §1, §2
# [4] = test system: SW620 (colorectal adenocarcinoma, metastatic); assay: Proliferation assay (MTT, 72 h) on SW620; format: cell-based; details: Homo sapiens, SW-620
# Method: as §1, §2
# A549 (lung carcinoma) = assay: Proliferation assay (MTT, 72 h) on A549; format: cell-based; details: Homo sapiens, A549 lung adenocarcinoma
# Method: as §1, §2
# [5] = test system: HFF-1 normal human foreskin fibroblasts; assay: Proliferation assay (MTT, 72 h) on normal foreskin fibroblasts HFF-1; format: cell-based; details: compounds 11a–e tested in HFF-1 cell line, read-out: IC50 WI38/HFF-1 (HFF-1)
# Method: as §1, §2
# p-NF-κB-p65 = assay: Western blot analysis of p-NF-κB-p65 in A549 cells; format: cell-based, human; details: A549, 2 × IC50, 48 h
# Method: (§3) Cells were seeded in 6-well plates in the concentration depending on tested cell line varying from 1 × 10^5 to 2 × 10^5 cells/well. […] Following treatment, cells were lysed with RIPA buffer supplemented with protease and phosphatase inhibitors (Roche). Total proteins (50 µg) were resolved on 10 or 12% polyacrilamide gels, depending on protein size, and transferred onto PVDF membranes that were blocked for 1 h with either 4% BSA or 5% non-fat milk prepared in tris-buffered saline (TBST). Membranes were probed with primary antibodies against GPLD1 (Abcam), PDGFRβ, p-IGF-1Rβ, p-p38 MAPK, and p-NF-κB-p65 from cell signalling technology at 4 °C overnight. The next day, membranes were washed in TBST and probed with horseradish peroxidase-conjugated secondary antibodies goat anti-mouse (Santa Cruz Biotechnology) or goat anti-rabbit (Santa Cruz Biotechnology). Protein bands were visualised using chemiluminescence substrate and ImageQuant LAS 500 (GE Healthcare, Chicago, IL). Following visualisation, protein band density was analysed by Quantity One 1-D Analysis Software (Bio-Rad, Hercules, CA).
# p-IGF-1Rβ = assay: Western blot analysis of p-IGF-1Rβ in A549 cells; format: cell-based, human; details: A549, 2 × IC50, 48 h
# Method: as §3
# PDGFRβ = assay: Western blot analysis of PDGFR in A549 cells; format: cell-based, human; details: A549, 2 × IC50, 48 h
# Method: as §3
# A549 cells = assay: Annexin V-FITC assay for apoptosis detection; format: cell-based, human
# Method: Staining of the cells was performed by Annexin-V-FITC Staining kit (Santa Cruz Biotechnology, Dallas, TX) according to the manufacturer’s instructions. Cells were visualised by fluorescent microscope (Olympus) at magnification of 40×.
# Further biological evaluations of compound 12b which was identified as a candidate were performed in order to investigate whether its antiproliferative effect in non-small cell lung cancer (A549) could be associated with induction of apoptosis.
# GPLD1 = assay: Western blot analysis of GPLD1 in A549 cells; format: cell-based, human; details: A549, 2 × IC50, 48 h
# Method: as §3
# p-p38 MAPK = assay: Western blot analysis of p-p38 MAPK in A549 cells; format: cell-based, human; details: A549, 2 × IC50, 48 h
# Method: as §3
# [6] = A549, 48 h, 2 × IC50, versus control
Compound,IC50 [2] [µM],melting point [°C],IC50 [3] [µM],IC50 [4] [µM],IC50 (A549 (lung carcinoma)) [µM],IC50 [1] [µM],IC50 [5] [µM],also measured
"FC(F)(F)c1ccc(-n2cc(Cn3cc(Br)c4c(Cl)ncnc43)nn2)cc1 [Compound 9c, 5-Bromo-4-chloro-7-{[1-(4-(trifluoromethyl)phenyl)-1H-1,2,3-triazol-4-yl]methyl}-7H-pyrrolo[2,3-d]pyrimidine]",62.8,220 to 221,32.9,55.7,66.4,57.5,–,–
"Fc1ccccc1-n1cc(Cn2cc(Br)c3c(Cl)ncnc32)nn1 [Compound 9d, 5-Bromo-4-chloro-7-{[1–(2-fluorophenyl)-1 H-1,2,3-triazol-4-yl]methyl}-7 H-pyrrolo[2,3-d]pyrimidine]",65.1,145 to 147,20,65.9,86.4,48.5,–,–
"O=c1cc(Cn2cc(Cn3cc(Br)c4c(Cl)ncnc43)nn2)c2ccc(O)cc2o1 [Compound 9e, 4-{[4-((5-Bromo-4-chloro-7H-pyrrolo[2,3-d]pyrimidin-7-yl)methyl)-1H-1,2,3-triazol-1-yl]methyl}-7-hydroxy-2H-chromen-2-one]",47.3,> 250,24.5,45.1,45.5,10.8,–,–
"O=c1cc(Cn2cc(Cn3ccc4cc(F)ccc43)nn2)c2ccc(O)cc2o1 [Compound 10e, 4-{[4-((5-Fluoro-1H-indol-1-yl)methyl)-1H-1,2,3-triazol-1-yl]methyl}-7-hydroxy-2H-chromen-2-one]",77.1,181 to 184,47.6,57.6,51.9,45.7,–,–
"O=c1cc(Cn2cc(Cn3ccc4ccccc43)nn2)c2ccc(O)cc2o1 [Compound 11e, 4-{[4-((1H-Indol-1-yl)methyl)-1H-1,2,3-triazol-1-yl]methyl}-7-hydroxy-2 H-chromen-2-one]",> 100,155 to 158,83,68.5,75.4,–,40,–
"Clc1ccc(-n2cc(Cn3cnc4ccccc43)nn2)cc1 [Compound 12b, 1-{[1-(4-chlorophenyl)-1H-1,2,3-triazol-4-yl]methyl}-1H-benzo[d]imidazole]",52.6,–,42.2,91.2,0.79,38.1,–,"p-NF-κB-p65 subunit expression level (p-NF-κB-p65): significant reduction; expression of p-IGF-1Rβ (p-IGF-1Rβ): downregulated; expression of PDGFR (PDGFRβ): downregulated; Secondary necrotic cells (A549 cells; A549, 48 h, 2 × IC50, PI+): 2.39%; Late apoptotic/Primary necrotic cells (A549 cells; A549, 48 h, 2 × IC50, PI+/Ann V+): 19.76%; Early apoptotic cells (A549 cells; A549, 48 h, 2 × IC50, PI−/Ann V+): 31.14%; Viable cells (A549 cells; A549, 48 h, 2 × IC50, PI−/Ann V−): 46.71%; increase in early apoptotic cell population (A549 cells; [6]): 30.62%; increase in late apoptotic/necrotic cell population (A549 cells; [6]): 19.76%; induction of apoptosis (A549 cells; A549 cells): induced apoptosis; expression level of GPLD1 protein (GPLD1): dramatically reduced; expression level of p-p38 MAP kinase (p-p38 MAPK): marked decline"

# Second part, led by results:
IC50 [2] [µM],melting point [°C],IC50 [3] [µM],IC50 [4] [µM],IC50 (A549 (lung carcinoma)) [µM],Compound,IC50 [1] [µM],IC50 [5] [µM],also measured
> 100,117 to 120,31,45.8,40.2,Fc1ccc2c(ccn2Cc2cn(-c3ccc(Cl)cc3)nn2)c1 [Compound 10b],58.1,–,–
64.7,151 to 154,53,54.2,71.6,"Fc1ccc2c(ccn2Cc2cn(-c3ccc(C(F)(F)F)cc3)nn2)c1 [Compound 10c, 5-Fluoro-1-{[1–(4-(trifluoromethyl)phenyl)-1 H-1,2,3-triazol-4-yl]methyl}-1 H-indole]",24,–,–
> 100,–,> 100,43.3,44,"Fc1ccc(-n2cc(Cn3ccc4ccccc43)nn2)cc1 [Compound 11a, 1-{[1-(4-Fluorophenyl)-1H-1,2,3-triazol-4-yl]methyl}-1H-indole]",–,> 100,–
> 100,–,> 100,> 100,> 100,"Clc1ccc(-n2cc(Cn3ccc4ccccc43)nn2)cc1 [Compound 11b, 1-{[1-(4-Chlorophenyl)-1H-1,2,3-triazol-4-yl]methyl}-1H-indole]",–,> 100,–
> 100,–,> 100,> 100,> 100,"FC(F)(F)c1ccc(-n2cc(Cn3ccc4ccccc43)nn2)cc1 [Compound 11c, 1-{[1-(4-(Trifluoromethyl)phenyl)-1H-1,2,3-triazol-4-yl]methyl}-1H-indole]",–,> 100,–
85.6,–,71.2,44.8,51.3,"Fc1ccccc1-n1cc(Cn2ccc3ccccc32)nn1 [Compound 11d, 1-{[1-(2-Fluorophenyl)-1H-1,2,3-triazol-4-yl]methyl}-1H-indole]",–,40.4,–
